Laboratory results published in patent US20090098110A1, “INJECTABLE FORMS OF SOLID-FORMING CROSSLINKED BIOELASTIC BIOPOLYMERS FOR LOCAL DRUG DELIVERY” (Duke University, priority 2007, published 2009).
Structures can show the parent of a compound that is named as a salt.

Assays:
[1] = Antibiotic release from the crosslinked bioelastomer constructs into PBS at 37° C, UV/Vis of supernatant; assay type: physicochemical; conditions: ELP 150 mg/ml
[2] = test system: Bacillus subtilis (ATCC 6633); assay: Agar disk bioassay (zone of inhibition) of antibiotics released from the crosslinked bioelastomer constructs; assay type: cell-based; conditions: for active compound concentration corresponding to zone of inhibition: day 1 supernatant; for active compound concentration corresponding to zone of inhibition / active drug concentration corresponding to zone of inhibition: vs serial dilutions
Protocol: To determine if the eluted antibiotics remained active, bioassays were performed in triplicate, for a subset of samples, using Bacillus subtilis (ATCC 6633) for both vancomycin and cefazolin. Vancomycin supernatants from days 1, 7, 14, 21, and 28, as well as a sample of the final construct (following resolubilization) were tested against vancomycin serial dilutions of 5 mg/ml, 1 mg/ml, 0.5 mg/ml, 0.1 mg/ml, and 0.05 mg/ml. […] Bacterial suspensions were prepared in tryptic soy broth following the recommendations set forth by the manufacturer for Bacillus subtilis (Lyfo Disk, MicroBiologics, St. Cloud, Minn.). After 30 minutes of incubation at 37° C. the suspensions were swabbed onto petri dishes containing Mueller-Hinton agar. Twenty microliters of each supernatant were pipetted onto 6 mm filter paper disks applied to the surface of the agar. The plates were incubated for 18 hours at 37° C. After incubation, zones of inhibition were measured twice in two randomly chosen directions. Supernatants from ELP control samples were tested in this same manner.

[3] = reported value, organism not stated; cited from earlier work

Row | SMILES | time in which the majority of cefazolin release took place ([1]; cefazolin-loaded ELP constructs) | active compound concentration corresponding to zone of inhibition ([2]; cefazolin released from crosslinked construct) [mg/mL] | active drug concentration corresponding to zone of inhibition ([2]; cefazolin released from crosslinked construct, day 3 supernatant) | zone of bacterial growth inhibition, biological activity of released cefazolin ([2]; supernatants of days 1-4 and final homogenized construct, all samples tested) | minimal inhibitory concentration [3] [µg/mL] | time period over which the ELP constructs release antibiotic ([1]; cefazolin-loaded ELP constructs, PBS 37° C, supernatant replaced days 1-10) [days] | time period over which the crosslinked ELP constructs release vancomycin ([1]; vancomycin-loaded crosslinked ELP constructs, PBS 37° C, supernatant replaced) [days] | zone of bacterial growth inhibition, biological activity of released vancomycin ([2]; all supernatants tested (days 1, 7, 14, 21, 28) and homogenized final sample) | active compound concentration corresponding to zone of inhibition ([2]; vancomycin released from crosslinked construct) [mg/mL] | active drug concentration corresponding to zone of inhibition ([2]; vancomycin released from crosslinked construct, day 7 supernatant)
1 | Cc1nnc(SCC2=C(C(=O)[O-])N3C(=O)[C@@H](NC(=O)Cn4cnnn4)[C@H]3SC2)s1.[Na+] [cefazolin, cefazolin sodium salt] | initial two or three days | ~2 | less than 0.5 mg/ml | biologically active | 0.25 to 1 |  |  |  |  | 
2 | CN[C@H](CC(C)C)C(=O)N[C@H]1C(=O)N[C@@H](CC(N)=O)C(=O)N[C@H]2C(=O)N[C@H]3C(=O)N[C@H](C(=O)N[C@H](C(=O)O)c4cc(O)cc(O)c4-c4cc3ccc4O)[C@H](O)c3ccc(c(Cl)c3)Oc3cc2cc(c3O[C@@H]2O[C@H](CO)[C@@H](O)[C@H](O)[C@H]2O[C@H]2C[C@](C)(N)[C@H](O)[C@H](C)O2)Oc2ccc(cc2Cl)[C@H]1O [vancomycin, vancomycin hydrochloride] |  |  |  |  | 1.5 to 3 | ≥ 10 | ≥ 28 | retained biological activity | ~1 | less than 0.1 mg/ml
